# Experimental data from patent publication US9403801B2 (Calitor Sciences, LLC, priority 2014, dated 2016).
# Assays:
# [1] = Compound stability in human liver microsomes; type: in vitro ADME; conditions: for half-life at 5 μM: compound 5 μM, NADPH 1.0 mM, 37° C.; for CLint scaled at 5 μM: in vivo CLint extrapolated
# Experimental: (§1) Human or rat liver microsomes incubations were conducted in duplicate in polypropylene tubes. The typical incubation mixtures consisted of human or rat liver microsomes (0.5 mg protein/mL), compounds of interest (5 μM) and NADPH (1.0 mM) in a total volume of 200 μL potassium phosphate buffer (PBS, 100 mM, pH 7.4). Compounds were dissolved in DMSO and diluted with PBS such that the final concentration of DMSO was 0.05%. The enzymatic reactions were commenced with the addition of protein after a 3-min preincubation and incubated in a water bath open to the air at 37° C. Reactions were terminated at various time points (0, 5, 10, 15, 30, 60 min) by adding equal volume of ice-cold acetonitrile. The samples were stored at −80° C. until LC/MS/MS assays.
# (§2) The concentrations of compounds in the incubation mixtures of human or rat liver microsomes were determined by a LC/MS/MS method. The ranges of the linearity in the concentration range were determined for each tested compounds.
# (§3) A parallel incubation was performed using denatured microsomes as the negative control, and reactions were terminated at various time points (0, 15, 60 min) after incubation at 37° C.
# (§4) Dextromethorphan (70 μM) was selected as the positive control, and reactions were terminated at various time points (0, 5, 10, 15, 30, 60 min) after incubation at 37° C. Both positive and negative control samples were included in each assay to ensure the integrity of the microsomal incubation system.
# (§5) The concentrations of compounds in human or rat liver microsome incubations were plotted as a percentage of the relevant zero time point control for each reaction. The in vivo CLint were extrapolated (ref.: Naritomi, Y.; Terashita, S.; Kimura, S.; Suzuki, A.; Kagayama, A.; and Sugiyama, Y.; Prediction of human hepatic clearance from in vivo animal experiments and in vitro metabolic studies with liver microsomes from animals and humans. Drug Metab. Dispos., 2001, 29: 1316-1324).
# [2] = Compound stability in rat liver microsomes; type: in vitro ADME; conditions: for half-life at 5 μM: compound 5 μM, NADPH 1.0 mM, 37° C.; for CLint scaled at 5 μM: in vivo CLint extrapolated
# Experimental: as §1, §2, §3, §4, §5
# [3] = Pharmacokinetics after intravenous and oral administration in rats; type: in vivo; conditions: for Clearance (CL) after iv dosing / AUC(0-t) / half-life / Vd: dose 1 mg/kg (Ex. 27: 0.72 mg/kg), iv dosing; for F: oral bioavailability; for AUC(0-t) / half-life / Vd: rat, plasma; for Vd: read-out: Vss
# Experimental: The LC/MS/MS system used in the analysis consists of an Agilent 1200 Series vacuum degasser, binary pump, well-plate autosampler, thermostatted column compartment, the Agilent G6430 Triple Quadrupole Mass Spectrometer with an electrosprayionization (ESI) source. Quantitative analysis was carried out using MRM mode. The parameters for MRM transitions are in the Table A.
# An Agilent XDB-C18, 2.1×30 mm, 3.5 μM column was used for the analysis. 5 μL of the samples were injected. Analysis condition: The mobile phase was 0.1% formic acid in water (A) and 0.1% formic acid in methanol (B). The flow rate was 0.4 mL/min. And the gradient of Mobile phase was in the Table B.
# Alternatively, an Agilent 6330 series LC/MS/MS spectrometer equipped with G1312A binary pumps, a G1367A autosampler and a G1314C UV detector were used in the analysis. An ESI source was used on the LC/MS/MS spectrometer. The analysis was done in positive ion mode as appropriate and the MRM transition for each analyte was optimized using standard solution. A Capcell MP-C18 100×4.6 mm I.D., […] column (Phenomenex, Torrance, Calif., USA) was used during the analysis. The mobile phase was 5 mM ammonia acetate, 0.1% MeOH in water (A): 5 mM ammonia acetate, 0.1% MeOH in acetonitrile (B) (70:30, v/v). The flow rate was 0.6 mL/min. Column was maintained at ambient temperature. 20 μL of the samples were injected.
# The compounds disclosed herein are assessed in pharmacokinetic studies in mice, rats, dogs or monkeys. The compounds are administered as a water solution, 2% HPMC+1% TWEEN®80 in water solution, 5% DMSO+5% solution in saline, 4% MC suspension or capsule. For the intravenous administration, the animals are generally given at 1 or 2 mg/kg dose. For the oral (p.o.) dosing, mice and rats are generally given 5 or 10 mg/kg dose, and dogs and monkeys are generally given 10 mg/kg dose. The blood samples (0.3 mL) are drawn at 0.25, 0.5, 1.0, 2.0, 3.0, 4.0, 6.0, 8.0, 12 and 24 h time points or 0.083, 0.25, 0.5, 1.0, 2.0, 4.0, 6.0, 8.0 and 24 h time points and centrifuged at 3,000 or 4000 rpm for 2 to 10 min. The plasma solutions are collected, and stored at −20° C. or −70° C. until analyzed by LC/MS/MS as described above.
# JAK1 (h) = JAK1 (h) (Homo sapiens (Human), UniProt P23458); experiment: JAK1 kinase assay (33P-ATP filter binding, Millipore); type: biochemical
# JAK1 (h), sequence (P23458 whole entry): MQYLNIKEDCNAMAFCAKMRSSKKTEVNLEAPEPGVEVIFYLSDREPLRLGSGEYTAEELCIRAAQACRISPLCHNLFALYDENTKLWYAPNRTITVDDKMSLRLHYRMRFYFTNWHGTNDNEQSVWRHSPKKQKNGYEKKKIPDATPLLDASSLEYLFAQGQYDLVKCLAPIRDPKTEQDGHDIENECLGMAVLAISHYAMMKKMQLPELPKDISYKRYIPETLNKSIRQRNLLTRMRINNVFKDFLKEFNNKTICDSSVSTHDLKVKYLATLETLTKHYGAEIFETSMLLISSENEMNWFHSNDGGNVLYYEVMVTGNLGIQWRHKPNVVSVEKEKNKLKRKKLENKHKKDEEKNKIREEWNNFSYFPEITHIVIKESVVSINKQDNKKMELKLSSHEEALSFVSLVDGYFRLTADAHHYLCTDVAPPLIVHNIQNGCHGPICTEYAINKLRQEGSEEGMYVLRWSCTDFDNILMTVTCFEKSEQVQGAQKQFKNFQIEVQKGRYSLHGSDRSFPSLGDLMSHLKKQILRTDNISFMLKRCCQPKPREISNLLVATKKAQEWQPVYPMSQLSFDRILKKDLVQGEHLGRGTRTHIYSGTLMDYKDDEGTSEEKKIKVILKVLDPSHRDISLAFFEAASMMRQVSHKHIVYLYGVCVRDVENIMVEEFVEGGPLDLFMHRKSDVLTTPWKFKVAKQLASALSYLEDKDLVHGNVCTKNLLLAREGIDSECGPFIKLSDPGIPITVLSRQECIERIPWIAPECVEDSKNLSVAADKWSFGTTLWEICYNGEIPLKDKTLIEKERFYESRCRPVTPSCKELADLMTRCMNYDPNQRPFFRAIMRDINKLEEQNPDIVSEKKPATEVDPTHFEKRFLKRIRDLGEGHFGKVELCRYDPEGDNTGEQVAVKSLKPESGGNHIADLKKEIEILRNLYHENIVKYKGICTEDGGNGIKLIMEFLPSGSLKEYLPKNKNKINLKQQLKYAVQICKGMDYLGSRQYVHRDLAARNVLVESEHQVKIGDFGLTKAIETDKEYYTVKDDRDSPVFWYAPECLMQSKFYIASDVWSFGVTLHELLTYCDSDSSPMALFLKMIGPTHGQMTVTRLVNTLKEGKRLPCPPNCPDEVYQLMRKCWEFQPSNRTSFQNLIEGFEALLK
# Experimental: Kinase assays can be performed by measurement of incorporation of γ-^33P ATP into immobilized myelin basic protein (MBP). High binding white 384 well plates (Greiner) are coated with MBP (Sigma #M−1891) by incubation of 60 μL/well of 20 μg/mL MBP in Tris-buffered saline (TBS; 50 mM Tris pH 8.0, 138 mM NaCl, 2.7 mM KCl) for 24 h at 4° C. Plates are washed 3× with 100 μL TBS. Kinase reactions are carried out in a total volume of 34 μL in kinase buffer (5 mM Hepes pH 7.6, 15 mM NaCl, 0.01% bovine gamma globulin (Sigma #I-5506), 10 mM MgCl2, 1 mM DTT, 0.02% TritonX-100). Compound dilutions are performed in DMSO and added to assay wells to a final DMSO concentration of 1%. Each data point is measured in duplicate, and at least two duplicate assays are performed for each individual compound determination. Enzyme is added to final concentrations of 10 nM or 20 nM, for example. A mixture of unlabeled ATP and γ-^33P ATP is added to start the reaction (2×10^6 cpm of γ-^33P ATP per well (3000 Ci/mmole) and 10 μM unlabeled ATP, typically. The reactions are carried out for 1 h at room temperature with shaking. Plates are washed 7× with TBS, followed by the addition of 50 μL/well scintillation fluid (Wallac). Plates are read using a Wallac Trilux counter. This is only one format of such assays; various other formats are possible, as known to one skilled in the art.
# The above assay procedure can be used to determine the IC50 for inhibition and/or the inhibition constant, Ki. The IC50 is defined as the concentration of compound required to reduce the enzyme activity by 50% under the condition of the assay. The IC50 value is estimated by preparing a 10 point curve using a 1/2 log dilution series (for example, a typical curve may be prepared using the following compound concentrations: 3 μM, 1 μM, 0.3 μM, 0.1 μM, 0.03 μM, 0.01 μM, 0.003 μM, 0.001 μM, 0.0003 μM and 0 μM).
# The kinase assays described herein were performed at Millipore UK Ltd, Dundee Technology Park, Dundee DD2 1SW, UK.
# [4] = human, liver microsomes, pH 7.4, Human liver microsomes 0.5 mg protein/mL
# [5] = human, liver microsomes, pH 7.4, Human liver microsomes
# [6] = rat, liver microsomes, pH 7.4, Rat liver microsomes 0.5 mg protein/mL
# [7] = rat, liver microsomes, pH 7.4, Rat liver microsomes
# [8] = pH 7.4, Human liver microsomes 0.5 mg protein/mL
# [9] = pH 7.4, Rat liver microsomes 0.5 mg protein/mL
Structure (SMILES),"half-life at 5 μM [1, 4]","CLint scaled at 5 μM [1, 5]","half-life at 5 μM [2, 6]","CLint scaled at 5 μM [2, 7]",Clearance (CL) after iv dosing [3],F [3],AUC(0-t) [3],half-life [3],Vd [3],IC50 (JAK1 (h)),"half-life at 5 μM [1, 8]","CLint scaled at 5 μM ([1]; pH 7.4, Human liver microsomes)","half-life at 5 μM [2, 9]","CLint scaled at 5 μM ([2]; pH 7.4, Rat liver microsomes)"
"CN(c1nc(Nc2cnn(C)c2)ncc1Cl)C1CCC2(CCNC2)CC1 (single isomer, unassigned) [Ex. 3.10A, 5-chloro-N^4-methyl-N^2-(1-methyl-1H-pyrazol-4-yl)-N^4-(2-azaspiro[4.5]decan-8-yl)pyrimidine-2,4-diamine]",5.24 h,5.53 mL/min/kg,0.213 h,194 mL/min/kg,70.2 mL/min/kg,19.06%,216 ng·h/mL,2.72 h,13.5 L/kg,–,–,–,–,–
"Cn1cc(Nc2nccc(NC3CCC4(CC3)CCN(C(=O)CC#N)C4)n2)cn1 (stereo not drawn) [Ex. 6, 3-(8-((2-((1-methyl-1H-pyrazol-4-yl)amino)pyrimidin-4-yl)amino)-2-azaspiro[4.5]decan-2-yl)-3-oxopropanenitrile]",–,–,–,–,–,–,–,–,–,55 nM,–,–,–,–
"CC(=O)N1CC2CC(Nc3nc(Nc4cnn(C)c4)ncc3C)CC2C1 (stereo not drawn) [Ex. 61, 1-(5-((5-methyl-2-((1-methyl-1H-pyrazol-4-yl)amino)pyrimidin-4-yl)amino)hexahydrocyclopenta[c]pyrrol-2(1H)-yl)ethanone]",–,–,–,–,–,–,–,–,–,42 nM,–,–,–,–
"CC(=O)N1CC2CC(Nc3nc(Nc4cc(C5CC5)[nH]n4)ncc3Cl)CC2C1 (stereo not drawn) [Ex. 53, 1-(5-((5-chloro-2-((5-cyclopropyl-1H-pyrazol-3-yl)amino)pyrimidin-4-yl)amino)hexahydrocyclopenta[c]pyrrol-2(1H)-yl)ethanone]",–,–,–,–,55.2 mL/min/kg,33.0%,296 ng·h/mL,1.02 h,2.46 L/kg,–,4.44 h,6.53 mL/min/kg,0.385 h,108 mL/min/kg
"Cn1cc(Nc2ncc(Cl)c(NC3CN(C(=O)CC#N)CC34CCCC4)n2)cn1 (stereo not drawn) [Ex. 18, 3-(4-((5-chloro-2-((1-methyl-1H-pyrazol-4-yl)amino)pyrimidin-4-yl)amino)-2-azaspiro[4.4]nonan-2-yl)-3-oxopropanenitrile]",–,–,–,–,45.8 mL/min/kg,55.9%,731 ng·h/mL,2.26 h,4.32 L/kg,7 nM,–,–,–,–
"CN(c1ccnc(Nc2cnn(C)c2)n1)C1CNCC12CCCC2 (stereo not drawn) [Ex. 1, N^4-methyl-N^2-(1-methyl-1H-pyrazol-4-yl)-N^4-(2-azaspiro[4.4]nonan-4-yl) pyrimidine-2,4-diamine]",–,–,–,–,157 mL/min/kg,44.39%,103 ng·h/mL,3.77 h,40.3 L/kg,–,3.05 h,9.49 mL/min/kg,4.49 h,9.23 mL/min/kg
"Cc1nn(C)cc1Nc1ncc(Cl)c(NC2CCC3(CC2)CCN(C(=O)CC#N)CC3)n1 [Ex. 57, 3-(9-((5-chloro-2-((1,3-dimethyl-1H-pyrazol-4-yl)amino)pyrimidin-4-yl)amino)-3-azaspiro[5.5]undecan-3-yl)-3-oxopropanenitrile]",–,–,–,–,–,–,–,–,–,16 nM,–,–,–,–
"Cc1cnc(Nc2cnn(C)c2)nc1N(C)C1CCC2(CC1)CCN(C(=O)CC#N)CC2 [Ex. 23, 3-(9-(methyl(5-methyl-2-((1-methyl-1H-pyrazol-4-yl)amino)pyrimidin-4-yl)amino)-3-azaspiro[5.5]undecan-3-yl)-3-oxopropanenitrile]",2.09 h,13.9 mL/min/kg,0.075 h,552 mL/min/kg,–,–,–,–,–,–,–,–,–,–
"N#CCC(=O)N1CCC2(CCC(Nc3nc(Nc4cc(C5CC5)[nH]n4)ncc3Cl)CC2)CC1 [Ex. 54, 3-(9-((5-chloro-2-((5-cyclopropyl-1H-pyrazol-3-yl)amino)pyrimidin-4-yl)amino)-3-azaspiro[5.5]undecan-3-yl)-3-oxopropanenitrile]",0.647 h,44.8 mL/min/kg,0.527 h,78.6 mL/min/kg,–,–,–,–,–,–,–,–,–,–
"COc1cnc(Nc2cc(C3CC3)[nH]n2)nc1NC1CC2CN(C(=O)CC#N)CC2C1 (stereo not drawn) [Ex. 52, 3-(5-((2-((5-cyclopropyl-1H-pyrazol-3-yl)amino)-5-methoxypyrimidin-4-yl)amino)hexahydrocyclopenta[c]pyrrol-2(1H)-yl)-3-oxopropanenitrile]",–,–,–,–,84.2 mL/min/kg,16.5%,197 ng·h/mL,0.32 h,1.6 L/kg,–,1.14 h,25.4 mL/min/kg,0.267 h,155 mL/min/kg
"Cn1cc(Nc2ncc(C#N)c(NC3CC4CN(C(=O)CC#N)CC4C3)n2)cn1 (stereo not drawn) [Ex. 67, 4-((2-(2-cyanoacetyl)octahydrocyclopenta[c]pyrrol-5-yl)amino)-2-((1-methyl-1H-pyrazol-4-yl)amino)pyrimidine-5-carbonitrile]",–,–,–,–,–,–,–,–,–,–,4.93 h,5.87 mL/min/kg,0.44 h,94.1 mL/min/kg
